Measurements: patent publication US10851108B2, “Substituted bicyclic heterocyclic compounds” (BRISTOL-MYERS SQUIBB COMPANY, priority 2016, dated 2020)

biological target: hROMK (human Kir1.1) (Homo sapiens (Human), UniProt P48048); experiment: Thallium Flux Assay; type: cell-based; conditions: CHO T-Rex hROMK stable cell line, 10-point concentration response; read-out: hROMK Th+ Flux IC50
Protocol: Solutions and reagents: Thallium flux assay was performed using FluxOR kit (F10017, Life Technologies). Loading buffer, assay buffer and stimulus buffer were prepared using kit components. HBSS (Hank's balanced salt solution, Cat #14025-092) was purchased separately from Life Technologies.
To prepare 10 ml of loading buffer: 10 μl of FluxOR dye (reconstituted in DMSO) was first added to 100 μl of powerload concentrate and this mix along with 100 μl of Probenicid (100×) was then added to 9.79 ml of HBSS. Assay buffer (10 ml) was prepared by addition of 2 ml of FluxOR chloride free buffer (5×), 100 μl of Probenicid (100×), and 0.2 ml of Ouabain (13.77 mM) to 7.7 ml of deionized water. Stimulus buffer was composed of 15 mM Tl2SO4, 0.75 mM K2SO4 in FluxOR chloride free buffer (diluted to 1× using deionized water). The final concentration of Tl2SO4 and K2SO4 in the assay plate was 3 mM and 0.15 mM, respectively.
Plating and induction of cells: The CHO T-Rex hROMK (human Kir1.1) stable cell line was maintained in Ham's F12 media supplemented with 10% FBS, 1% Penicillin-Streptomycin, 500 μg/ml Zeocin and 10 μg/ml Blasticidin at 37° C. in a 5% CO2 incubator. One day before the experiment, the cells were dissociated by incubation with Versene solution (15040-066, Life Technologies) for 10 minutes at 37° C. followed by addition of growth media. The cell suspension was centrifuged at 1200 rpm for 5 min. After discarding the supernatant, the cells were resuspended in fresh growth media and cell concentration was determined using a hemocytometer. Next, 0.5 μg/ml of Doxycycline was added to the cell suspension to induce hROMK channel expression and 50 μl (10,000 cells/well) of cell suspension was added to each well of a poly-D lysine coated 384 well black, optically clear bottom plate (6007718, Perkin Elmer). The assay plate was kept at 37° C. in a 5% CO2 incubator.
Assay protocol: On the day of experiment, media was removed and loading buffer was added (30 μl/well) to the assay plate. The cells were incubated in the loading buffer for 30 minutes at 37° C. The loading buffer was then replaced by assay buffer (30 μl/well) followed by addition of test compounds or controls. The cells were incubated with compounds for 30 minutes and the plate was then mounted on FlexStation (Molecular Devices) for fluorescence read out with excitation and emission wavelengths at 488 and 525 nm, respectively. Each well was read for 90 sec at 2 sec interval and the stimulus buffer was added after 20 seconds of baseline recording. The final DMSO concentration was either 0.5 or 1% in the assay plate. […] controls were defined by addition of DMSO or 3 μM of a standard ROMK inhibitor, respectively, to the wells instead of a test compound.
A 10-point concentration response curve was used to estimate the IC50 value of test compounds.
The data in Table 3 is reported with two significant figures.

Sequence of hROMK (human Kir1.1) (P48048 whole entry): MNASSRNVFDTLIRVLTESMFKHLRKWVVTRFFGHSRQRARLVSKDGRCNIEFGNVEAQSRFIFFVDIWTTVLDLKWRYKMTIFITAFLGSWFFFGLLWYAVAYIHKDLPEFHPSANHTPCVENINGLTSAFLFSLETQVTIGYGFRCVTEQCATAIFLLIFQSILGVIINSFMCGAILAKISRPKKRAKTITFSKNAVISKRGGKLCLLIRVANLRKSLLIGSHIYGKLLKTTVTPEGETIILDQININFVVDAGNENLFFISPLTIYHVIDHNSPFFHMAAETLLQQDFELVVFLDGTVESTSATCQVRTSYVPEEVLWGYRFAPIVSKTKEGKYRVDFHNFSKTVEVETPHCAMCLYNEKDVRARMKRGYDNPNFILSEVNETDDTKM

IC50	Compound
0.381 µM	COc1cc(Nc2ncc3c(n2)CCN(CC(O)c2ccc4c(c2C)COC4=O)C3)ncc1C#N (single isomer, unassigned) [Example 64-I, 6-((6-(2-hydroxy-2-(4-methyl-1-oxo-1,3-dihydroisobenzofuran-5-yl)ethyl)-5,6,7,8-tetrahydropyrido[4,3-d]pyrimidin-2-yl)amino)-4-methoxynicotinonitrile]
4.9 µM	Cc1c(C(O)CN2CCc3nc(-n4ncc5c(C#N)ccnc54)ncc3C2)ccc2c1COC2=O (single isomer, unassigned) [Example 35-II, 1-(6-(2-hydroxy-2-(4-methyl-1-oxo-1,3-dihydroisobenzofuran-5-yl)ethyl)-5,6,7,8-tetrahydropyrido[4,3-d]pyrimidin-2-yl)-1H-pyrazolo[3,4-b]pyridine-4-carbonitrile]
0.8 µM	Cc1c(C(O)CN2CCc3nc(-n4ncc5c(C#N)ccnc54)ncc3C2)ccc2c1COC2=O (single isomer, unassigned) [Example 35-I, 1-(6-(2-hydroxy-2-(4-methyl-1-oxo-1,3-dihydroisobenzofuran-5-yl)ethyl)-5,6,7,8-tetrahydropyrido[4,3-d]pyrimidin-2-yl)-1H-pyrazolo[3,4-b]pyridine-4-carbonitrile]
0.568 µM	Cc1c(C(O)CN2CCc3nc(Nc4cncc(C#N)c4)ncc3C2)ccc2c1COC2=O (single isomer, unassigned) [Example 61-I, 5-((6-(2-hydroxy-2-(4-methyl-1-oxo-1,3-dihydroisobenzofuran-5-yl)ethyl)-5,6,7,8-tetrahydropyrido[4,3-d]pyrimidin-2-yl)amino)nicotinonitrile]
2.1 µM	Cc1c(C(O)CN2CCc3nc(-n4ccc5cc(C#N)cnc54)ncc3C2)ccc2c1COC2=O (single isomer, unassigned) [Example 44-I, 1-(6-(2-hydroxy-2-(4-methyl-1-oxo-1,3-dihydroisobenzofuran-5-yl)ethyl)-5,6,7,8-tetrahydropyrido[4,3-d]pyrimidin-2-yl)-1H-pyrrolo[2,3-b]pyridine-5-carbonitrile]
1.9 µM	Cc1c(CN2CCc3nc(N(C)c4ccc(C#N)c(F)c4)ncc3C2)ccc2c1COC2=O [Example 47, 2-fluoro-4-(methyl(6-((4-methyl-1-oxo-1,3-dihydroisobenzofuran-5-yl)methyl)-5,6,7,8-tetrahydropyrido[4,3-d]pyrimidin-2-yl)amino) benzonitrile]
4.9 µM	Cc1c(CN2CCc3cc(Nc4ncc(C#N)cn4)ccc3C2)ccc2c1COC2=O [Example 37, 2-((2-((4-methyl-1-oxo-1,3-dihydro-isobenzofuran-5-yl)methyl)-1,2,3,4-tetrahydroisoquinolin-6-yl)amino) pyrimidine-5-carbonitrile]
0.21 µM	Cc1c(C(O)CN2CCc3nc(-n4ccc5c(C#N)cncc54)ncc3C2)ccc2c1COC2=O (single isomer, unassigned) [Example 42-II, 1-(6-(2-hydroxy-2-(4-methyl-1-oxo-1,3-dihydroisobenzofuran-5-yl)ethyl)-5,6,7,8-tetrahydropyrido[4,3-d]pyrimidin-2-yl)-1H-pyrrolo[2,3-c]pyridine-4-carbonitrile]
0.495 µM	CCOC(=O)c1cnc2cnn(-c3ncc4c(n3)CCN(CC(O)c3ccc5c(c3C)COC5=O)C4)c2c1 (single isomer, unassigned) [Example 51-I, ethyl 1-(6-(2-hydroxy-2-(4-methyl-1-oxo-1,3-dihydroisobenzofuran-5-yl)ethyl)-5,6,7,8-tetrahydropyrido[4,3-d]pyrimidin-2-yl)-1H-pyrazolo[4,3-b]pyridine-6-carboxylate]
0.6 µM	Cn1c(=O)oc2ccc(CN3CCc4cc(Nc5ccc(C#N)c(F)c5)ccc4C3)cc21 [Example 48, 2-fluoro-4-((2-((3-methyl-2-oxo-2,3-dihydrobenzo[d]oxazol-5-yl)methyl)-1,2,3,4-tetrahydroisoquinolin-6-yl)amino)benzonitrile]

Continued, molecule first:

Compound	IC50
Cc1c(CN2CCc3cc(Nc4ccc5oc(=O)n(C)c5c4)ccc3C2)ccc2c1COC2=O [Example 14, 3-methyl-5-((2-((4-methyl-1-oxo-1,3-dihydroisobenzofuran-5-yl)methyl)-1,2,3,4-tetrahydroisoquinolin-6-yl)amino)benzo[d]oxazol-2(3H)-one]	0.32 µM
N#Cc1cccc2c1ccn2-c1ncc2c(n1)CCN(CC(O)c1ccc3c(c1)COC3=O)C2 (single isomer, unassigned) [Example 18-II, 1-(6-(2-hydroxy-2-(1-oxo-1,3-dihydro-isobenzofuran-5-yl)ethyl)-5,6,7,8-tetrahydropyrido[4,3-d]pyrimidin-2-yl)-1H-indole-4-carbonitrile]	0.58 µM
Cc1c(N2CCc3cc(NCc4ccc(C#N)c(F)c4)ccc3C2)ccc2c1COC2=O [Example 10, 2-fluoro-4-(((2-(4-methyl-1-oxo-1,3-dihydroisobenzofuran-5-yl)-1,2,3,4-tetrahydroisoquinolin-6-yl)amino)methyl)benzonitrile]	4.6 µM
Cc1cc(Nc2ccc3c(c2)CCN(Cc2ccc4c(c2)COC4=O)C3)ncc1C#N [Example 34, 4-methyl-6-((2-((1-oxo-1,3-dihydro-isobenzofuran-5-yl)methyl)-1,2,3,4-tetrahydroisoquinolin-6-yl)amino) nicotinonitrile]	0.3 µM
Cc1c(CN2Cc3cnc(Nc4ccc(C#N)c(F)c4)nc3CC2CO)ccc2c1COC2=O (single isomer, unassigned) [Example 57-I, 2-fluoro-4-((7-(hydroxymethyl)-6-((4-methyl-1-oxo-1,3-dihydroisobenzo-furan-5-yl)methyl)-5,6,7,8-tetrahydro-pyrido[4,3-d]pyrimidin-2-yl)amino) benzonitrile]	0.83 µM
N#Cc1ccc2c(ccn2-c2ncc3c(n2)CCN(CC(O)c2ccc4c(c2)COC4=O)C3)c1 (single isomer, unassigned) [Example 17-II, 1-(6-(2-hydroxy-2-(1-oxo-1,3-dihydro-isobenzofuran-5-yl)ethyl)-5,6,7,8-tetrahydropyrido[4,3-d]pyrimidin-2-yl)-1H-indole-5-carbonitrile]	0.85 µM
Cc1c(C(O)CN2CCc3nc(-n4cc(C#N)c5ccccc54)ncc3C2)ccc2c1COC2=O (single isomer, unassigned) [Example 8-II, 1-(6-(2-hydroxy-2-(4-methyl-1-oxo-1,3-dihydroisobenzofuran-5-yl)ethyl)-5,6,7,8-tetrahydropyrido[4,3-d]pyrimidin-2-yl)-1H-indole-3-carbonitrile]	0.083 µM
Cc1c(C(CO)N2CCc3cc(Nc4ccc(C#N)c(F)c4)ccc3C2)ccc2c1COC2=O (single isomer, unassigned) [Example 33-II, 2-fluoro-4-((2-(2-hydroxy-1-(4-methyl-1-oxo-1,3-dihydroisobenzofuran-5-yl)ethyl)-1,2,3,4-tetrahydroisoquinolin-6-yl)amino) benzonitrile]	1.8 µM
Cn1c(=O)oc2ccc(C(O)CN3CCc4nc(-n5ncc6c(C#N)cccc65)ncc4C3)cc21 (single isomer, unassigned) [Example 3-I, 1-(6-(2-hydroxy-2-(3-methyl-2-oxo-2,3-dihydrobenzo[d]oxazol-5-yl)ethyl)-5,6,7,8-tetrahydropyrido[4,3-d]pyrimidin-2-yl)-1H-indazole-4-carbonitrile]	0.74 µM
Cc1c(C(O)CN2CCc3nc(-n4ccc5c(C#N)cccc54)ncc3C2)ccc2c1COC2=O (single isomer, unassigned) [Example 1-II, 1-(6-(2-hydroxy-2-(4-methyl-1-oxo-1,3-dihydroisobenzofuran-5-yl)ethyl)-5,6,7,8-tetrahydropyrido[4,3-d]pyrimidin-2-yl)-1H-indole-4-carbonitrile]	0.46 µM
Cc1c(CN2CCc3nc(Nc4ccc(C#N)c(F)c4)ncc3C2)ccc2c1COC2=O [Example 26, 2-fluoro-4-((6-((4-methyl-1-oxo-1,3-dihydroisobenzofuran-5-yl)methyl)-5,6,7,8-tetrahydropyrido[4,3-d]pyrimidin-2-yl)amino) benzonitrile]	0.27 µM
